Laboratory results from ChEMBL document CHEMBL1201862, “PubChem BioAssay data set” (2004).
Active and inactive are the calls of the source.

Tests used:
cells [1] = assay type: functional, cell-based
cells [2] = assay type: functional, cell-based; remark: listed apart in the source
[3] = molecular target: Luciferin 4-monooxygenase (Photinus pyralis, UniProt P08659); test: inhibition of purified Photinus pyralis luciferase – biochemical, luminescence, dose response (AID 1891)
[4] = Luminescence Cell-Based Dose Confirmation HTS to Identify Inhibitors of Platelet Dense Granule Release. [Related pubchem assays: 1663 (Primary HTS), 1678 (Summary of Project)]; assay type: functional
Cytochrome P450 2C9 = Cytochrome P450 2C9 (Homo sapiens, UniProt P11712)
Cytochrome P450 2C19 = Cytochrome P450 2C19 (Homo sapiens, UniProt P33261); test: Cytochrome panel assay with activity outcomes. Panel member name: p450-cyp2c19 Compounds with AC50 equal or less than 10 uM are considered active; assay type: functional; settings: read-out: AC50
Cytochrome P450 1A2 = molecular target: T1, Cytochrome P450 1A2 (Homo sapiens, UniProt P05177);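 also: PubChem cytochrome P450 panel assay, CYP1A2 panel member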
T1 sequence (P05177 whole entry): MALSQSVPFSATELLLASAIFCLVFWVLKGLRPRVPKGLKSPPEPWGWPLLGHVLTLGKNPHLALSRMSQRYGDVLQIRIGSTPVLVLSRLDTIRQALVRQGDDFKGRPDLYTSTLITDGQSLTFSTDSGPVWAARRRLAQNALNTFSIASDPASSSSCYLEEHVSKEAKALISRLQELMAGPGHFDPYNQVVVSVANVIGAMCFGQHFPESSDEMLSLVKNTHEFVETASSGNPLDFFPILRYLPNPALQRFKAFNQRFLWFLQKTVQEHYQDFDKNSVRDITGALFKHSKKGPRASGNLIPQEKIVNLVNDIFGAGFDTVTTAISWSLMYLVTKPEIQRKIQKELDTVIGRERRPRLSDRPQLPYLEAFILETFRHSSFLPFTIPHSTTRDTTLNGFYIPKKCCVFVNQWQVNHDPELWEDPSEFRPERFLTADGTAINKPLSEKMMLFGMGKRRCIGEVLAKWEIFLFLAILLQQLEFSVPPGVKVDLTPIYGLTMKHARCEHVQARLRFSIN

[5] = HEK-293T viability loss after treatment – luminescence, T-cell screen hits, cytotoxicity control for TCR NF-kB inhibitor project, dose response (AID 489026); assay type: functional, cell-based;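 also: cells exposed to compound about 14 hours before the viability readout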
[6] = Luminescence Cell-Based Dose Response HTS to Identify Inhibitors of 5'UTR Stem-Loop Driven Prion Protein mRNA Translation in H4 Neuroglioblastoma Cells. [Related pubchem assays: 1827 (Project Summary), 1813 (Primary HTS)]; assay type: functional
[7] = luciferase reporter signal suppression in cells – H4 neuroglioma cells, luminescence, dose response (AID 1990); assay type: functional, cell-based
[8] = alpha-synuclein stem-loop luciferase translation blockers – H4 neuroglioma cells, luminescence, confirmation (AID 1988); assay type: functional, cell-based
[9] = Trypanosoma cruzi growth suppression in host cells – NIH3T3 host cells, beta-gal luminescence, confirmation (AID 2044); assay type: functional, cell-based;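 also: intracellular parasites grown in NIH/3T3 mouse fibroblasts as host cells; luminescent beta-galactosidase reporter signal from transgenic T. cruzi replicating inside host cells; inhibitors lower the luminescence signal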
Coagulation factor XII = molecular target: T2, Coagulation factor XII (Homo sapiens, UniProt P00748); assay type: functional;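 also: activated factor XIIa alpha cleaving a fluorogenic AMC peptide substrate; inhibitor potency from loss of enzyme activity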
T2 sequence (P00748 whole entry): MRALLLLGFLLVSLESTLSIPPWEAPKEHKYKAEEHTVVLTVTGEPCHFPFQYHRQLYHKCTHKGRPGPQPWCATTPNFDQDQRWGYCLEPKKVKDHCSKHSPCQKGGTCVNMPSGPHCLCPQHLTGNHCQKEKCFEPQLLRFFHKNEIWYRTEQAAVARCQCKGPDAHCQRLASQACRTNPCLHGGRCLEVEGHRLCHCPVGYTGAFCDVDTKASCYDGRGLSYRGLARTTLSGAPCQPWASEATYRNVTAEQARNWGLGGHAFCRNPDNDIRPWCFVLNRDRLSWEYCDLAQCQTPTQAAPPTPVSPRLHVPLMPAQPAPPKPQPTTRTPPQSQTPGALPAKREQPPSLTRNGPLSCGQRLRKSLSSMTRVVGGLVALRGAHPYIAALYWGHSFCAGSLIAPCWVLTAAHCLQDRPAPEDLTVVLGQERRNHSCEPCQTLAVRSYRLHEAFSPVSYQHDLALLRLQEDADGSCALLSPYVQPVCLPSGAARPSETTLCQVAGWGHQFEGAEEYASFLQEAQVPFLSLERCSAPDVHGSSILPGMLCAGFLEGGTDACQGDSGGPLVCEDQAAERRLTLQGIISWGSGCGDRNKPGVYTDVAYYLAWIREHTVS

BJ [10] = test: BJ-TERT fibroblast viability loss – cell-based, RAS-independent, luminescence, dose response (AID 1933); assay type: functional; settings: Homo sapiens
[11] = DRD fibroblast viability loss – cell-based, non-viral oncogenic, luminescence, dose response (AID 1934); assay type: functional; settings: Homo sapiens
BJ [12] = test: cells; assay type: functional, cell-based; settings: Homo sapiens
BJ [13] = test: BJ-TERT-LT-ST fibroblast viability loss – cell-based, RAS-independent, luminescence, dose response (AID 1935); assay type: functional; settings: Homo sapiens;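 also: BJ fibroblasts immortalized with TERT plus LT and ST oncogenes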
Protein RecA = molecular target: T3, Protein RecA (Mycobacterium tuberculosis, UniProt P9WHJ3); test: Fluorescence Cell-Free Homogeneous Dose Retest to Identify Inhibitors of RecA-Intein Splicing Activity. [Related pubchem assays (depositor defined):AID2097, AID2223, AID489010, AID492950]; assay type: functional
T3 sequence (P9WHJ3 whole entry): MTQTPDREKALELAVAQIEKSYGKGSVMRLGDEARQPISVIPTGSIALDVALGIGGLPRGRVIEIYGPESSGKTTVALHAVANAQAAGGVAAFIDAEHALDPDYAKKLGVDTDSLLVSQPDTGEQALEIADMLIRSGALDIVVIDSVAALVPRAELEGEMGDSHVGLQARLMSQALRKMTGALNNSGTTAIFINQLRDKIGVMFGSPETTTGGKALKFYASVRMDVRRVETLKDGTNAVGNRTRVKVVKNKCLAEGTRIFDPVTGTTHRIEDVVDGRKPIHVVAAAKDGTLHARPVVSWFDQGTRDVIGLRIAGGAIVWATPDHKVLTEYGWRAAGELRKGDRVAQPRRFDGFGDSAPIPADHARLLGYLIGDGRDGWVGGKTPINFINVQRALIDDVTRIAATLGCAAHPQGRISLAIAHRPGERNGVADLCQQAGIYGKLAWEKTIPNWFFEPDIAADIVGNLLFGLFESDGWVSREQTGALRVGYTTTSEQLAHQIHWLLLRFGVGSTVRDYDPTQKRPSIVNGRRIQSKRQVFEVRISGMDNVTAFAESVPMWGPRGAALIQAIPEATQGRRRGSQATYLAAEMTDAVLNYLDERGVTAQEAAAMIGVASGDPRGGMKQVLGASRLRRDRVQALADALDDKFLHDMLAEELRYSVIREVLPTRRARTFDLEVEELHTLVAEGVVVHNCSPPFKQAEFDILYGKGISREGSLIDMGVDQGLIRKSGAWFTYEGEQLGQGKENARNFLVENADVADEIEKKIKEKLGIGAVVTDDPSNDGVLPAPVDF

[14] = molecular target: T4, Replicative DNA helicase DnaB (Mycobacterium tuberculosis, UniProt P9WMR3); test: DnaB intein splicing inhibitors, dose response, biochemical, cell-free fluorescence (AID 449749); assay type: functional
T4 sequence (P9WMR3 whole entry): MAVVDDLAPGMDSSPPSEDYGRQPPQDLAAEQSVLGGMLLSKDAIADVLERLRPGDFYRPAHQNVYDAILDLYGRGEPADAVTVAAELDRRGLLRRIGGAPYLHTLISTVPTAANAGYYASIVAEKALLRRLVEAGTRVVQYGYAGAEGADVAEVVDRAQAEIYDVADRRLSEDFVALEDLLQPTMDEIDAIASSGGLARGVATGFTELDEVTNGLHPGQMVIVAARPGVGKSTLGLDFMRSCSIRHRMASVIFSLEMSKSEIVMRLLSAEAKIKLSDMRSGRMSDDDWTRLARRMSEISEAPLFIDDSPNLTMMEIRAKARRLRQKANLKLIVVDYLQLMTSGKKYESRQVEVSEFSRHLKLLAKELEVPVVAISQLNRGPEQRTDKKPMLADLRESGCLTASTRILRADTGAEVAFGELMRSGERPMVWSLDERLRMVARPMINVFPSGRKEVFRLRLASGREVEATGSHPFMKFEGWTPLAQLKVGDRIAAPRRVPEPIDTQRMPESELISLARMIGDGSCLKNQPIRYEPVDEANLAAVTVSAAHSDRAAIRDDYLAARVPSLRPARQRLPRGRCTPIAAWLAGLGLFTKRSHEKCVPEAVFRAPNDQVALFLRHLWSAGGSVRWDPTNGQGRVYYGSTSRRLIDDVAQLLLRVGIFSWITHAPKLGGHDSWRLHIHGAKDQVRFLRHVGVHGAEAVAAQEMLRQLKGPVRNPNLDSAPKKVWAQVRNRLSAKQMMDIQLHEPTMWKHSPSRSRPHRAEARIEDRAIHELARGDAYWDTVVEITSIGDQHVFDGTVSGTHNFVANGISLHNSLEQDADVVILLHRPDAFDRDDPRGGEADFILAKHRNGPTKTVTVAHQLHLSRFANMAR

[15] = reduction of Shn3 3'UTR-driven luciferase in osteoblasts – cell-based, Clone20 osteoblasts, firefly luciferase, cherry-picked, dose response (AID 624132); assay type: functional;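 also: firefly luciferase luminescence from reporter carrying the Shn3 3'UTR in osteoblasts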
[16] = non-specific 3'UTR reporter inhibition in Clone20-Shn3RL – cell-based, Renilla luciferase, cherry-picked, counter-screen for Shn3 inhibitor project, dose response (AID 624133); assay type: functional
[17] = Luminescence Cell-Based Dose Retest to Confirm Inhibitors of Cancer Stem Cells. [Related pubchem assays (depositor defined):AID2717, AID2721]; assay type: functional; settings: Homo sapiens
INS1 = test: INS-1E survival protection against cytokine death – cell-based, luminescence, retest, dose response (AID 449756); assay type: functional; settings: Rattus norvegicus;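 also: cell death triggered by IL-1 beta plus TNF-alpha plus IFN-gamma mixture; protective hits raise ATP signal compared with cytokine alone wells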
[18] = loss of viability in HepG2 cells – cell-based, CellTiter-Glo, cherry-picked, cytotoxicity control for Shn3 inhibitor project, dose response (AID 624134); assay type: functional

Chain of Luciferin 4-monooxygenase (P08659 whole entry): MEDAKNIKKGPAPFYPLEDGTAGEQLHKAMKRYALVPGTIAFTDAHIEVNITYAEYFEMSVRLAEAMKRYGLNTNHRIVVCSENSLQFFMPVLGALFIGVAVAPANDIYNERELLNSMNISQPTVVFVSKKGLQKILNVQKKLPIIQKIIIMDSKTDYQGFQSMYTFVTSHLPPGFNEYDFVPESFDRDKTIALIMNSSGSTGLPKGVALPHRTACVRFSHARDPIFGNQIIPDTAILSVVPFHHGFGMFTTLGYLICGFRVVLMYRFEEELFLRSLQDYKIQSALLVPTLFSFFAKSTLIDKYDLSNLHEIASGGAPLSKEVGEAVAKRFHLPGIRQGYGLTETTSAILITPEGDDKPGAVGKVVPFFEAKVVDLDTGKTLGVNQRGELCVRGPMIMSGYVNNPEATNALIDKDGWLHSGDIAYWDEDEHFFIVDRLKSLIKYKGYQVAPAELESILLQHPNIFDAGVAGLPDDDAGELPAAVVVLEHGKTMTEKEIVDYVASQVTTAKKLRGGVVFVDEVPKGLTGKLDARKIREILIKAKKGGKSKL
Chain of Cytochrome P450 2C9 (P11712 whole entry): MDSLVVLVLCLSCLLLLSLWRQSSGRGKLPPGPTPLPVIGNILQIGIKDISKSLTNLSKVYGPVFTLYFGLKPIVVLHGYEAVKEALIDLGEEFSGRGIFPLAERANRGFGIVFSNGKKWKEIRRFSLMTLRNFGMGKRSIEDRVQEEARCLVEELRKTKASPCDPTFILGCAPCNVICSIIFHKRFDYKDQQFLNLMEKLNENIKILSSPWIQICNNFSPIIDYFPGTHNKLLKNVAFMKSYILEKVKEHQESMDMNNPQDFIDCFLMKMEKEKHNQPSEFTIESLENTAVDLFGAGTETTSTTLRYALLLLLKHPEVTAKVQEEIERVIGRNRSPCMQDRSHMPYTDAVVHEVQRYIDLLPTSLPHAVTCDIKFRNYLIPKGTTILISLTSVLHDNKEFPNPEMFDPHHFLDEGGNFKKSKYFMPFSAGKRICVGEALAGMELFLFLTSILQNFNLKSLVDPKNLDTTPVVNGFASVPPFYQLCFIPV
Chain of Cytochrome P450 2C19 (P33261 whole entry): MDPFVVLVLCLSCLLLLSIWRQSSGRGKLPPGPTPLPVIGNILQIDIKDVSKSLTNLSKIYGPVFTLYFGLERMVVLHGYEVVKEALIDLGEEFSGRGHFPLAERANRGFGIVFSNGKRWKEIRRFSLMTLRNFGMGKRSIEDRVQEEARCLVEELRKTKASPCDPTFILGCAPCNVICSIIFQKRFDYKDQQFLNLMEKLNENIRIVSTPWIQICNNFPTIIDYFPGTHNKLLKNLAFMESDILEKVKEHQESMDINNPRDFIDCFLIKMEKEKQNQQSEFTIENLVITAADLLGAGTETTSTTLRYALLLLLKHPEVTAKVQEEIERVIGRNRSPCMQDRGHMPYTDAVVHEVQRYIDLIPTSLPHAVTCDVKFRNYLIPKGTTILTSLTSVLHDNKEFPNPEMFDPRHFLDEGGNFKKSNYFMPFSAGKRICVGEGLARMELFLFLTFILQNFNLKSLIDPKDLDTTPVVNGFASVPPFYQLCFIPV

SMILES: CC(=O)NCCC(=O)Nc1cc(S(=O)(=O)N2CCOCC2)ccc1N1CCOCC1
- EC50 (cells [1]): > 350 µM (not active)
- EC50 (cells [2]): > 350 µM (not active)

SMILES: Cc1c(C(c2cccc([N+](=O)[O-])c2O)c2c(C)n(C)n(-c3ccccc3)c2=O)c(=O)n(-c2ccccc2)n1C
- EC50 [3]: > 112 µM (not active)
- EC50 [4]: > 112 µM (not active)
- AC50 (Cytochrome P450 2C9): 0.00562 µM (inconclusive)
- AC50 (Cytochrome P450 2C19): 35.5 µM (inconclusive)
- AC50 (Cytochrome P450 1A2): 15.8 µM (inconclusive)

SMILES: Cc1c(C(=O)OCC(C)C)[nH]c2c1C(=O)CC(c1cccs1)C2 (configuration not stated)
- IC50 [5]: > 80 µM (inactive)
- EC50 [6]: > 60 µM (not active)
- EC50 [7]: 8.93 µM (inconclusive)
- EC50 [8]: 3.13 µM (active)
- EC50 [9]: 4.91 µM (active)

SMILES: CCCCCCCCCC(=O)Nn1cnc2ccccc2c1=O
- IC50 (Coagulation factor XII): > 50 µM (inactive)

SMILES: COc1cc(Cl)c(C)cc1NC(=O)CSC
- IC50 (Coagulation factor XII): > 50 µM (inactive)

SMILES: O=C(C[n+]1cc(-c2ccccc2)n2c1CCC2)Nc1nc(-c2ccccc2)cs1
- IC50 (Coagulation factor XII): > 50 µM (inactive)

SMILES: COc1ccccc1CNC(=O)c1cccc(NC(=O)c2ccccc2)c1
- EC50 (cells [1]): > 350 µM (not active)
- EC50 (cells [2]): 56.2 µM (active)

SMILES: CCOc1ccccc1NC(=O)COC(=O)Cc1cccs1
- EC50 [3]: > 112 µM (not active)
- EC50 [4]: > 112 µM (not active)

SMILES: CCN(Cc1ccccc1)C(=O)CCNS(=O)(=O)c1ccc2c(c1)CC(C)N2C(C)=O (configuration not stated)
- EC50 (cells [1]): > 350 µM (not active)
- EC50 (cells [2]): > 350 µM (not active)

SMILES: Cc1nc(-c2ccc(C(=O)Nc3ccccc3F)cc2)cs1
- EC50 (BJ [10]): 13.7 µM (active)
- EC50 [11]: 11 µM (active)
- EC50 (BJ [12]): 10.8 µM (active)
- EC50 (BJ [13]): 19.9 µM (active)

SMILES: CN1CCN(c2ccc(CNS(=O)(=O)Cc3ccc(Cl)cc3)cc2)CC1
- IC50 (Coagulation factor XII): > 50 µM (inactive)

SMILES: COc1ccc2nc(NC(=O)Nc3ccccc3OC)sc2c1
- EC50 (cells [1]): > 350 µM (not active)
- EC50 (cells [2]): 4.4 µM (active)

SMILES: COc1cccc2sc(NC(=O)c3ccc(S(=O)(=O)N4CCOCC4)cc3)nc12
- IC50 (Coagulation factor XII): > 50 µM (inactive)

SMILES: Cc1cc(=O)oc(C)c1C(=O)NCCNC(=O)c1c(C)cc(=O)oc1C
- EC50 [3]: > 112 µM (not active)
- EC50 [4]: 28.8 µM (active)

SMILES: COC(=O)c1ccc(C)c(NC(=O)CN(c2cc(OC)ccc2OC)S(C)(=O)=O)c1
- EC50 (BJ [10]): > 150 µM (not active)
- EC50 [11]: > 150 µM (inconclusive)
- EC50 (BJ [12]): > 150 µM (not active)
- EC50 (BJ [13]): > 150 µM (not active)

SMILES: COC(CN(C(=O)CCl)C(C(=O)NC1CCCCC1)c1ccc(Cl)cc1)OC (configuration not stated)
- EC50 (Protein RecA): 1.81 µM (active)
- AC50 [14]: 15.8 µM (active)
- EC50 (cells [1]): > 350 µM (not active)
- EC50 (cells [2]): > 350 µM (not active)

SMILES: CC1=NC(C#N)=C(C#N)NC(C)(C)C1
- EC50 (cells [1]): > 350 µM (not active)
- EC50 (cells [2]): > 350 µM (not active)

SMILES: O=C(NN=Cc1c(O)ccc2ccccc12)c1ccc2c(c1)OCO2
- IC50 [5]: > 80 µM (inactive)

SMILES: CC(C)(C)c1cc(C(=O)N/N=C/c2ccccc2O)n(-c2ccccc2)n1
- AC50 [15]: 2.25 µM (active)
- AC50 [16]: 2.18 µM (active)
- AC50 [17]: 3.05 µM (active)
- AC50 (INS1): 3.37 µM (active)
- AC50 [18]: 5.66 µM (active)
